Reference: article PMC8279409, “Novel Mixed NOP/Opioid Receptor Peptide Agonists” (Journal of Medicinal Chemistry, 2021)
Several values for one entry are separate records, joined by “and”; a condition that tells them apart may be missing. Equal entries are not always repeated. Where two headings read alike, the source gives them in different places. Where a SMILES comes first, the peptide text is derived from it. Where no end group is shown, it is not given here. [ ]: non-standard residue; d: D form. Dmt = Cc1cc(O)cc(C)c1C[C@H](N)C(=O)O

Tests used:
Type in all cases: cell-based
[1] = target: T1, human NOP receptor (Homo sapiens, UniProt P41146); assay: Calcium mobilization, NOP receptor; settings: for Emax: mean ± SEM of at least three experiments in duplicate, SEM; for NOP pEC50 (CL95%): CHO cells coexpressing human NOP and Gαqi5, Fluo-4 AM, 37 °C, mean of at least three experiments in duplicate, CL95% in brackets; for NOP/mu CR (concentration ratio): calcium mobilization, NOP versus mu
T1 construct: expressed in transfected cells; host or cells: CHO cells stably coexpressing the receptor and chimeric Gαqi5
T1 sequence (P41146 whole entry): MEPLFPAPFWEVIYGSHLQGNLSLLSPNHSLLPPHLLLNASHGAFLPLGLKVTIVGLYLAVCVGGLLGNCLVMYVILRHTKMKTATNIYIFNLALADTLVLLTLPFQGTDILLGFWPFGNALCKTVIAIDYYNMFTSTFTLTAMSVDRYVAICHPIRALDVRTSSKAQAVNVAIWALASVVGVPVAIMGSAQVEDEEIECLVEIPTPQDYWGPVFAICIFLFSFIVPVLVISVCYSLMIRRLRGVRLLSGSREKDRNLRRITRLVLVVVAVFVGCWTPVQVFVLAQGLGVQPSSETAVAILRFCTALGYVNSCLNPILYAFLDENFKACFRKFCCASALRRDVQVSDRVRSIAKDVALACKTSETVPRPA
Procedure: CHO cells stably coexpressing the human NOP or kappa or the mu receptor and the C-terminally modified Gαqi5 and CHO cells coexpressing the delta receptor and the GαqG66Di5 protein were generated and cultured as described previously.[45],[46] Cells were maintained in Dulbecco’s modified Eagle’s medium/nutrient mixture F-12 (DEMEM/F-12) supplemented with 10% FBS, 100 U/mL penicillin and 100 μg/mL streptomycin, 100 μg/mL hygromicin B, and 200 μg/mL G418 and cultured at 37 °C in 5% CO2 humidified air. Cells were seeded at a density of 50,000 cells/well into 96-well black, clear-bottom plates. The following day, the cells were incubated with Hanks’ balanced salt solution (HBSS) supplemented with 2.5 mM probenecid, 3 μM of the calcium-sensitive fluorescent dye Fluo-4 AM, and 0.01% pluronic acid for 30 min at 37 °C. After that time, the loading solution was aspirated and 100 μL/well of HBSS supplemented with 20 mM HEPES, 2.5 mM probenecid, and 500 μM brilliant black was added. Serial dilutions were carried out in HBSS/HEPES (20 mM) buffer (containing 0.02% BSA fraction V). After placing both plates (cell culture and master plate) into the fluorometric imaging plate reader FlexStation II (Molecular Devices, Sunnyvale, CA), fluorescence changes were measured. On-line additions were carried out in a volume of 50 μL/well. To facilitate drug diffusion into the wells, the present studies were performed at 37 °C. Maximum change in fluorescence, expressed as percent over the baseline fluorescence, was used to determine agonist response.
(§1) The pharmacological terminology adopted in this paper is consistent with IUPHAR recommendations.[59] All data are expressed as the mean ± standard error of the mean (SEM) of at least three experiments performed in duplicate. […] Concentration-response curves to agonists were fitted to the classical four-parameter logistic nonlinear regression model:
(§2) Effect = Baseline + (Emax – Baseline)/(1 + 10^(LogEC50 – Log[compound]) × Hillslope). Curve fitting was performed using PRISM 6.0 (GraphPad Software Inc., San Diego).

[2] = target: T2, human mu receptor (Homo sapiens, UniProt P35372); assay: Calcium mobilization, mu opioid receptor; settings: for Emax / activation at 10 µM: percent over the baseline fluorescence, SEM; for Emax: mean ± SEM of at least three experiments in duplicate; for mu pEC50 (CL95%): CHO cells coexpressing human mu receptor and Gαqi5, Fluo-4 AM, 37 °C, mean of at least three experiments in duplicate, CL95% in brackets; for pEC50_mu: molecular formula strings CSV, repeats calcium mobilization values of Tables 1-3; for activation at 10 µM: mean ± SEM
T2 construct: expressed in transfected cells; host or cells: CHO cells stably coexpressing the receptor and chimeric Gαqi5
T2 sequence (P35372 whole entry): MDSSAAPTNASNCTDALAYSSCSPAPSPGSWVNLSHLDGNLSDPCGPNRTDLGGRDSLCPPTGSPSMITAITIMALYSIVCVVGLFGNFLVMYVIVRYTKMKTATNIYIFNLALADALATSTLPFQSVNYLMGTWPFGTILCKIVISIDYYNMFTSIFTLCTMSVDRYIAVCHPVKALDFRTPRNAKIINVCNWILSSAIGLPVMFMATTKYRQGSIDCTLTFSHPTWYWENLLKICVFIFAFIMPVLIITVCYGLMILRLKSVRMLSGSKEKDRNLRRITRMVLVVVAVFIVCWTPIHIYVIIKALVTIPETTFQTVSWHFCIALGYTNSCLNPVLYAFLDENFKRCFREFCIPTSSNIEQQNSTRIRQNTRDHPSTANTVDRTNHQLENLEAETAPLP

[3] = target: T2, human mu receptor; assay: Dynamic mass redistribution (DMR), mu receptor
Procedure: CHO cells stably expressing the human NOP and mu receptors were kindly provided by D.G. Lambert (University of Leicester, UK). Cells were cultured in DMEM/F-12 medium supplemented with 10% FBS, 100 U/mL penicillin, 100 μg/mL streptomycin, and 2 mmol/L L-glutamine. The medium was supplemented with 400 μg/mL G418 to maintain expression. Cells were cultured at 37 °C in 5% CO2 humidified air. For DMR measurements, the label-free EnSight Multimode Plate Reader (Perkin Elmer, MA, US) was used. Cells were seeded 15,000 cells/well in a volume of 30 μL onto fibronectin-coated 384-well DMR microplates and cultured for 20 h to obtain confluent monolayers. Cells were starved in the assay buffer (HBSS with 20 mM HEPES, 0.01% BSA fraction V) for 90 min before the test. Serial dilutions were made in the assay buffer. After reading the baseline, compounds were added in a volume of 10 μL; then, DMR changes were recorded for 60 min. Responses were described as picometer (pm) shifts over time (sec) following subtraction of values from vehicle-treated wells. Maximum picometer (pm) modification (peak) was used to generate concentration response curves. All the experiments were carried out at 37 °C.
as §1, §2

[4] = read-out: NOP Emax ± S.E.M., Table 3 series, percent over the baseline fluorescence
[5] = read-out: mu Emax ± S.E.M., Table 3 series
[6] = read-out: NOP Emax ± S.E.M., Table 2 series, percent over the baseline fluorescence
[7] = read-out: mu effect at 10 μM (crc incomplete), Table 2 series
[8] = read-out: NOP Emax ± S.E.M., Table 1 series, maximum change in fluorescence as percent over the baseline fluorescence
[9] = read-out: mu effect at 10 μM (crc incomplete), Table 1 series
[10] = read-out: mu Emax ± S.E.M, Table 1 series

Compound | Emax [1, 6] | mu pEC50 (CL95%) ([2]; Table 2 series) | pEC50_mu [2] | NOP pEC50 (CL95%) ([1]; Table 1 series, FlexStation II) | NOP/mu CR (concentration ratio) ([1]; Table 1 series) | Emax [1, 8] | mu pEC50 (CL95%) ([2]; Table 1 series) | activation at 10 µM [2, 9] | further results
Cc1cc(O)cc(C)c1C[C@H](NC(=O)[C@H](Cc1ccccc1)NC(=O)CNC(=O)CNC(=O)[C@@H](N)Cc1c(C)cc(O)cc1C)C(=O)NCC(=O)N[C@@H](C)C(=O)N[C@@H](CCCNC(=N)N)C(=O)N[C@@H](CCCCN)C(=O)N[C@@H](CO)C(=O)N[C@@H](C)C(=O)N[C@@H](CCCNC(=N)N)C(=O)N[C@@H](CCCCN)C(N)=O [Compound 35, [Dmt^1,5]N/OFQ(1-13)-NH2] (H-[Dmt]GGF[Dmt]GARKSARK-NH2) |  |  |  |  |  |  |  |  | Emax [1, 4]: 270 ± 25%; Emax [2, 5]: 354 ± 16%
CC(C)C[C@H](NC(=O)[C@H](CCCCN)NC(=O)[C@H](CCCNC(=N)N)NC(=O)[C@H](C)NC(=O)[C@H](CO)NC(=O)[C@H](CCCCN)NC(=O)[C@H](CCCNC(=N)N)NC(=O)[C@H](C)NC(=O)CNC(=O)[C@@H](NC(=O)[C@H](Cc1ccccc1)NC(=O)CNC(=O)CNC(=O)[C@@H](N)Cc1ccccc1)[C@@H](C)O)C(=O)N[C@@H](C)C(=O)N[C@@H](CC(N)=O)C(=O)N[C@@H](CCC(N)=O)C(=O)O [Compound 36, N/OFQ] |  |  |  |  |  |  |  |  | mu pEC50 (CL95%) ([3]; DMR, CHO cells expressing human mu receptor, 60 min, 37 °C, mean of at least three experiments in duplicate, CL95% in brackets): inactive; mu Emax ± S.E.M. ([3]; DMR, maximum picometer (pm) modification (peak), mean ± SEM of at least three experiments in duplicate): inactive; pEC50_mu ([3]; molecular formula strings CSV, value of Compound_36 repeats the DMR result of Table 4): inactive
YGGFFGARKSARK-NH2 [Compound 15, [Tyr^1,Phe^5]N/OFQ(1-13)-NH2] | 242 ± 11% | 6.41 (5.85–6.97) |  |  |  |  |  |  | NOP pEC50 (CL95%) ([1]; Table 2 series): 7.72 (7.56–7.87); NOP/mu CR (concentration ratio) ([1]; Table 2 series): 0.05; Emax ([2]; read-out: mu Emax ± S.E.M., Table 2 series): 315 ± 32%
YGGFHGARKSARK-NH2 [Compound 16, [Tyr^1,His^5]N/OFQ(1-13)-NH2] | 249 ± 23% | crc incomplete; 10 μM: 230 ± 37 | crc incomplete |  |  |  |  |  | NOP pEC50 (CL95%) ([1]; Table 2 series): 7.39 (7.16–7.62); NOP/mu CR (concentration ratio) ([1]; Table 2 series): 0.05; activation at 10 µM [2, 7]: 230 ± 37%
YGGFK(Ac)GARKSARK-NH2 [Compound 6, [Tyr^1,Lys(Ac)^5]N/OFQ(1-13)-NH2] |  |  | crc incomplete | 8.55 (7.88–9.22) | 0.003 | 370 ± 16% | crc incomplete; 10 μM: 161 ± 31 | 161 ± 31% | 
YGGFKGARKSARK-NH2 [Compound 8, [Tyr^1,Lys^5]N/OFQ(1-13)-NH2] |  |  | crc incomplete | 7.26 (6.74–7.78) | 0.05 | 366 ± 6% | crc incomplete; 10 μM: 113 ± 35 | 113 ± 35% | 
YGGFLGARKSARK-NH2 [Compound 11, [Tyr^1,Leu^5]N/OFQ(1-13)-NH2] |  |  |  | 8.03 (7.46–8.60) | 0.01 | 339 ± 24% | 6.08 (5.95–6.21) |  | Emax [2, 10]: 339 ± 25%
YGGFNGARKSARK-NH2 [Compound 4, [Tyr^1,Asn^5]N/OFQ(1-13)-NH2] |  |  | crc incomplete | 8.70 (8.26–9.11) | 0.002 | 327 ± 15% | crc incomplete; 10 μM: 209 ± 29 | 209 ± 29% | 
YGGFTGARKSARK-NH2 [Compound 3, [Tyr^1]N/OFQ(1-13)-NH2, reference compound] [listing 1 of 2 here] |  |  |  |  |  |  |  |  | EC50 [1]: 0.741 nM and 0.708 nM; EC50 [2]: 1580 nM
YGGFTGARKSARK-NH2 [Compound 3, [Tyr^1]N/OFQ(1-13)-NH2, reference compound] [listing 2 of 2 here] | 266 ± 14% | crc incomplete; 10 μM: 217 ± 29 | crc incomplete | 9.23 (9.07–9.39) | 0.001 | 380 ± 11% | crc incomplete; 10 μM: 197 ± 69 | 197 ± 69% | NOP/mu CR (concentration ratio) ([1]; Table 3 series): <0.001; Emax [1, 4]: 236 ± 13%; Emax [2, 5]: 251 ± 34%; activation at 10 µM [2, 7]: 217 ± 29%
YGGFVGARKSARK-NH2 [Compound 5, [Tyr^1,Val^5]N/OFQ(1-13)-NH2] |  |  | crc incomplete | 8.70 (8.53–8.87) | 0.002 | 334 ± 19% | crc incomplete; 10 μM: 254 ± 19 | 254 ± 19% | 
YGGFWGARKSARK-NH2 [Compound 17, [Tyr^1,Trp^5]N/OFQ(1-13)-NH2] | 288 ± 28% | crc incomplete; 10 μM: 193 ± 31 | crc incomplete |  |  |  |  |  | NOP pEC50 (CL95%) ([1]; Table 2 series): 7.27 (7.19–7.35); NOP/mu CR (concentration ratio) ([1]; Table 2 series): 0.07; activation at 10 µM [2, 7]: 193 ± 31%
YGGFYGARKSARK-NH2 [Compound 14, [Tyr^1,5]N/OFQ(1-13)-NH2] |  |  |  | 7.07 (6.68–7.46) | 0.49 | 332 ± 19% | 6.76 (6.34–7.18) |  | Emax [2, 10]: 357 ± 21%
